From the NIST ThermoML archive (doi:10.1021/je1009224)

What was measured:
[1] = 101.3 kPa, Liquid
[2] = xn = mol fraction of the nth substance listed; conditions: 101 kPa, Liquid

C=CCCCCCC [oct-1-ene]
[1]
Conditions | viscosity [mPa·s]
283.1 K | 0.56
298.15 K | 0.47
323.15 K | 0.37
348.15 K | 0.3

CCCCCC[n+]1ccn(C)c1.O=S(=O)([N-]S(=O)(=O)C(F)(F)F)C(F)(F)F
[1]
Conditions | viscosity [mPa·s]
283.1 K | 136
298.15 K | 70.1
323.15 K | 25.8
348.15 K | 13.5

CCCCCC[n+]1ccn(C)c1.O=S(=O)([N-]S(=O)(=O)C(F)(F)F)C(F)(F)F + C=CCCCCCC
[2], x2 = 0
Conditions | viscosity [mPa·s]
283.1 K | 136
298.15 K | 70.1
323.15 K | 25.8
348.15 K | 13.5

C=CCCCCCC [oct-1-ene] + CCCCCC[n+]1ccn(C)c1.O=S(=O)([N-]S(=O)(=O)C(F)(F)F)C(F)(F)F
viscosity [mPa·s], [2]
Conditions | 283.1 K | 298.15 K | 323.15 K | 348.15 K
x1 = 0.05 | 127 | 66.6 | 24.4 | 13
x1 = 0.1 | 106 | 56.2 | 21.6 | 11.6
x1 = 0.15 | 93 | 51.2 | 20.5 | 11.4
x1 = 1 | 0.56 | 0.47 | 0.37 | 0.3
